Experimental data from patent publication US10718761B2, “Phosphatase or kinase activity detection composition and detection method” (INDUSTRY-UNIVERSITY COOPERATION FOUNDATION HANYANG …, priority 2014, dated 2020).

Test system: TAMRA-PEPPKA(p)
Assay: Zn(II)-mediated QD-FRET between QD525 and TAMRA-labelled phosphopeptide
Assay type: binding
Details: QD 2 nM
Method: A synthetic peptide substrate labeled with 5(6)-carboxytetramethylrhodamine at the N-terminus (TAMRA-LRRASLG; TAMRA-PEPPKA) was compared with its phosphorylated form (TAMRA-LRRApSLG; TAMRA-PEPPKA(p)) (FIG. 12B). The FRET ratio was determined by the acceptor (FA) emission area (integrated from 550 to 650 nm) relative to the donor (FD) emission area (integrated from 450 to 550 nm). The concentrations of QD, TAMRA-PEPPKA(p) (or TAMRA-PEPPKA), and ZnCl2 were 2 nM, 80 nM and 100 μM, respectively. The QD-FRET spectra were obtained at an excitation wavelength of 380 nm.
The change in FRET between QD and TAMRA-PEPPKA(p) according to a function of Zn^2+ concentration was calculated. Furthermore, the relative FRET percentage was calculated by dividing the experimental FRET ratio by the maximal FRET ratio (0.74). The concentrations of QD and TAMRA-PEPPKA(p) were 2 nM and 80 nM, respectively. Excitation/emission wavelengths of QD-FRET (FIG. 12C (i)), QD (FIG. 12C (ii)), and TAMRA-PEPPKA(p) (FIG. 12C (iii)) were obtained at 380/580, 380/525, 530/580 nm, respectively.

Kd (free Zn(II) ions, TAMRA-PEPPKA(p) 80 nM (1:40 molar ratio), read-out: binding affinity Kd for TAMRA-PEPPKA(p), based on the FRET efficiency): 8.8 µM
SMILES: [Cl-].[Cl-].[Zn+2] [Zn(II), ZnCl2]
FRET ratio (FA/FD) (TAMRA-PEPPKA(p) 80 nM, ZnCl2 100 μM, excitation 380 nm): 0.65
